The first data set can be described thus: logP by HPLC on reversed-phase columns (C 18), EEC Directive 79/831 Annex V.A8. Format: physicochemical. The conditions noted are these: LC-MS, pH 2.7, 0.1% aqueous formic acid and acetonitrile.
In the case of `COCC(C)Nc1nc(Nc2ccc(OC)nc2)ncc1Cl` (centres unmarked) [II-2], the “logP [b]” value is 1.39[b].

Still in this data set, the particulars now being: method marker [a].
As to `CCN(CC)c1ccc(Nc2ncc(Cl)c(NC3CCCCC3)n2)cc1` [Example 265], the logP is 1.69[a].

The same data set, now with this note: method marker [a]; footnote not given.
As to `CC(=O)c1cccc(Nc2ncc(Cl)c(NCCO)n2)c1.Cl` [Example 56], the logP is 1.06[a]. The same measure, in the same setting: with `COCC(C)Nc1nc(Nc2ccc(C(C)C)cc2)ncc1Cl` (centres unmarked) [Example 9] the figure was 2.38[a]; with `COCC(C)Nc1nc(Nc2cccc(S(=O)(=O)N(C)C)c2)ncc1Cl` (centres unmarked) [Example 31], 2.02[a];; with `COCC(C)Nc1nc(Nc2ccc(S(=O)(=O)N(C)C)cc2)ncc1Cl` (centres unmarked) [Example 16], 2.25[a];. `CC(C)Nc1nc(Nc2ccccc2)ncc1Cl` [Example 36]: the logP was 1.77[a]. The same measure, in the same setting: under `COCCNc1nc(Nc2ccc(N3CCN(C(=O)OC(C)(C)C)CC3)cc2)ncc1Cl` [Example 7] stands 2.05[a];; under `CNc1nc(Nc2ccccc2)ncc1Cl` [Example 35], 1.27[a]; under `CSCC(C)Nc1nc(Nc2ccccc2)ncc1Cl` (centres unmarked) [Example 37], 2.04[a]. As for `CC(C)(C)Nc1nc(Nc2ccccc2)ncc1Cl` [Example 34], the logP was 2.17[a].

In the case of `CN(C)c1nc(Nc2ccc(S(=O)(=O)N(C)C)cc2)ncc1Cl` [Example 27], the logP is 2.49[a].

`CC(=O)c1cccc(Nc2ncc(Cl)c(NC(C)(C)C)n2)c1` [Example 49]: the logP was 2.15[a]. On the same count and under the same terms, under `COc1cc(Nc2ncc(Cl)c(NCCO)n2)cc(OC)c1OC.Cl` [Example 55] stands 1.09[a]; under `COCC(C)Nc1nc(Nc2cccc(Cl)c2)ncc1Cl` (centres unmarked) [Example 10], 2.58[a]; under `COCCNc1nc(Nc2ccccc2)ncc1Cl.Cl` [Example 61], 1.41[a];.

Regarding `CCC(CO)Nc1nc(Nc2cc(OC)cc(OC)c2)ncc1Cl` (centres unmarked) [Example 19], the logP is 1.64[a].

For `Cl.OCCNc1nc(Nc2ccccc2)ncc1Cl` [Example 53], the logP is 0.86[a].

In the case of `COCCNc1nc(Nc2ccc(S(=O)(=O)N(C)C)cc2)ncc1Cl` [Example 6], the logP is 1.9[a];.

Staying with this data set, now noted: method marker [b] (compound 257: pH2.7).
For `CC(C)CCNc1nc(Nc2ccccc2)ncc1Cl` [Example 277], the logP is 2.37[b]. Same read-out and setting: with `CC(C)Nc1nc(Nc2ccccc2)ncc1Br` [Example 247] the figure was 1.89[b]. On the same count and under the same terms, with `CN(C)S(=O)(=O)c1ccc(Nc2ncc(Cl)c(NC3CCCCC3)n2)cc1` [Example 263] the figure was 3.18[b]; with `CC(C)Nc1nc(Nc2cccc(CC#N)c2)ncc1Br` [Example 246], 1.84[b].

As to `CC(C)Nc1nc(Nc2cccc(C=O)c2)ncc1Cl` [Example 252], the logP was 1.86[b].

Staying with this data set, now noted: method marker [b]; footnote not given; compound 68 value matches logP (pH 2.3).
For `COCC(C)Nc1nc(Nc2ccc(-c3cscn3)cc2)ncc1Br` (centres unmarked) [Example 112], the logP was 1.99[b].

In the case of `COCC(C)Nc1nc(Nc2ccc(SC)c(Cl)c2)ncc1Br` (centres unmarked) [Example 111], the logP is 2.99[b]. Turning to `COCC(C)Nc1nc(Nc2cccc(C#N)c2)ncc1Br` (centres unmarked) [Example 108], the logP is 2.26[b]. On to `COCC(C)Nc1nc(Nc2cccc(S(=O)(=O)N(C)C)c2)ncc1Cl` (centres unmarked) [Example 31], for which the logP was 2.18[b]. Still for that read-out and setting: under `COCC(C)Nc1nc(Nc2ccc(S(=O)(=O)N(C)C)cc2)ncc1Cl` (centres unmarked) [Example 16] stands 2.26[b]; under `COCC(C)Nc1nc(Nc2ccc3c(c2)CCN3C(C)=O)ncc1Br` (centres unmarked) [Example 79], 1.55[b]. The same measure, in the same setting: with `COCC(C)Nc1nc(Nc2ccc(C(=O)CC#N)cc2)ncc1Cl` (centres unmarked) [Example 102] the figure was 2.09[b]. Same read-out and setting: with `COCCNc1nc(Nc2ccc(N3CCN(C(=O)OC(C)(C)C)CC3)cc2)ncc1Cl` [Example 7] the figure was 2.05[b]; with `COCC(C)Nc1nc(Nc2ccc(C(=O)OC)c(Cl)c2)ncc1Br` (centres unmarked) [Example 115], 3.14[b]; with `COCCNc1nc(Nc2ccccc2)ncc1Cl.Cl` [Example 61], 1.41[b]. On to `COCC(C)Nc1nc(Nc2ccc(C(F)(F)F)cc2)ncc1Cl` (centres unmarked) [Example 82], for which the logP was 3.22[b]. Same read-out and setting: under `COCCNc1nc(Nc2ccc(S(=O)(=O)N(C)C)cc2)ncc1Cl` [Example 6] stands 1.9[b].

Still in this data set, the particulars now being: method marker [c].
Consider `CC(C)Nc1nc(Nc2ccccc2)ncc1Br` [Example 247], for which the logP was 3.7[c];. With `CC(C)Nc1nc(Nc2cccc(CC#N)c2)ncc1Br` [Example 246], the logP is 3.13[c];. The same measure, in the same setting: under `CC(C)Nc1nc(Nc2cccc(C=O)c2)ncc1Cl` [Example 252] stands 3.06[c];.

The same data set, now with this note: pH 2.3, 0.1% aqueous phosphoric acid and acetonitrile.
Turning to `COCC(C)Nc1nc(Nc2ccc(S(=O)(=O)N(C)C)cc2)ncc1Cl` (centres unmarked) [Example 16], the “logP [a]” value came to 2.25.

The data set is the same for the next values; noted with them: pH 2.3, 0.1% aqueous phosphoric acid and acetonitrile; read-out: logP [a].
In the case of `CCCCN(C)c1nc(Cl)ncc1Cl` [Example V-28], the chromatographic logP came to 3.89.

The same data set, now with this note: pH 2.3, logP [a].
As to `N#CCNc1nc(Cl)ncc1Cl` [Example V-8, [(2,5-dichloropyrimidin-4-yl)amino]acetonitrile], the chromatographic logP was found to be 1.27.

For `CSCC(C)(C)Nc1nc(Cl)ncc1Cl` [Example V-7, 2,5-dichloro-N-[2-methyl-1-(methylsulphanyl)propan-2-yl]pyrimidine-4-amine], the chromatographic logP came out at 3.47. The molecule `COCC(C)Nc1nc(Cl)ncc1Br` (centres unmarked) [Example V-2, 5-bromo-2-chloro-N-(3-methoxypropan-2-yl)pyrimidine-4-amine] came in with a chromatographic logP of 2.26. On to `CC(C)Nc1nc(Cl)ncc1Cl` [Example V-9, 2,5-dichloro-N-(propan-2-yl)pyrimidine-4-amine], for which the chromatographic logP came out at 2.46. Still for that read-out and setting: under `COCC(C)Nc1nc(Cl)ncc1Cl` (centres unmarked) [Example V-1, 2,5-Dichloro-N-(3-methoxypropan-2-yl)pyrimidine-4-amine] stands 2.1; under `CCN(C)c1nc(Cl)ncc1Cl` [Example V-19, 2,5-dichloro-N-ethyl-N-methylpyrimidine-4-amine], 2.68.

The same data set, now with this note: reversed-phase HPLC column (C 18), pH 2.3, pH 2.3, 0.1% aqueous phosphoric acid and acetonitrile; read-out: logP [a].
In the case of `CC(C)(C)CNc1nc(Cl)ncc1Cl` [Example V-32, 2,5-dichloro-N-(2,2-dimethylpropyl)pyrimidine-4-amine], the chromatographic logP came out at 3.44.

`COCCNc1nc(Cl)ncc1Cl` [Example V-3, 2,5-dichloro-N-(2-methoxyethyl)pyrimidine-4-amine]: the chromatographic logP worked out at 1.65. Same read-out and setting: under `CC(C)c1cccc(Nc2ncc(C(F)(F)F)c(Cl)n2)c1` [VIII-4, 4-Chloro-N-[3-(propan-2-yl)phenyl]-5-(trifluoromethyl)pyrimidine-2-amine] stands 4.87. Consider `CC(C)Nc1nc(Cl)ncc1Br` [Example V-10, 5-bromo-2-chloro-N-(propan-2-yl)pyrimidine-4-amine], for which the chromatographic logP came out at 2.62. Same read-out and setting: under `CCN(c1nc(Cl)ncc1Cl)C(C)C` [Example V-30, 2,5-dichloro-N-ethyl-N-isopropylpyrimidine-4-amine] stands 3.8.

Still in this data set, the particulars now being: values marked [b]; footnote not given.
In the case of `COCC(C)Nc1nc(Nc2ccc(C)c(SC)c2)ncc1Cl` (centres unmarked) [Example 154], the logP is 2.33[b]. On the same count and under the same terms, under `CC(C)Nc1nc(Nc2ccc(C#N)cc2)ncc1Cl` [Example 184] stands 2.46[b]; under `CN(C)c1nc(Nc2ccccc2)ncc1Br` [Example 178], 1.86[b]; under `COc1ccc(Nc2ncc(Cl)c(NC(C)C)n2)cc1` [Example 183], 1.63[b]. Still for that read-out and setting: under `COCC(C)Nc1nc(Nc2ccc(N(C(=O)C(F)(F)F)C3CC3)cc2)ncc1Cl` (centres unmarked) [Example 164] stands 2.55[b]; under `CC(=O)Nc1ccc(Nc2ncc(Cl)c(NC(C)C)n2)cc1Cl` [Example 190], 1.61[b]. For the molecule `C=C(C)C(=O)Nc1cccc(Nc2ncc(Cl)c(NC(C)C)n2)c1` [Example 196], the logP was 1.66[b]. Consider `COCC(C)Nc1nc(Nc2cccc(NC(=O)C3(C)CC3)c2)ncc1Cl` (centres unmarked) [Example 162], for which the logP is 1.78[b].

On to `CNC(=O)c1ccc(Nc2ncc(Cl)c(NC(C)COC)n2)cc1` (racemic) [Example 135], for which the logP was 1.38[b]. Same read-out and setting: with `COCC(C)Nc1nc(Nc2ccc(C)c(NC(C)=O)c2)ncc1Cl` (centres unmarked) [Example 167] the figure was 1.37[b]. With `CC(=O)N(C)c1ccc(Nc2ncc(Cl)c(NC(C)C)n2)cc1` [Example 192], the logP is 1.51[b]. As to `CC(C)Nc1nc(Nc2ccc(S(C)(=O)=O)cc2)ncc1Cl` [Example 186], the logP is 1.86[b]. With `CC(C)Nc1nc(Nc2cccc(S(=O)(=O)N3CCCCC3)c2)ncc1Cl` [Example 198], the logP was 2.08[b].

With `CCOC(=O)Nc1cccc(Nc2ncc(Cl)c(NC(C)COC)n2)c1` (racemic) [Example 143], the logP was 1.78[b].

Consider `COCC(C)Nc1nc(Nc2ccc(OC(F)(F)C(F)F)cc2)ncc1Cl` (centres unmarked) [Example 158], for which the logP is 2.61[b]. For `COCC(C)Nc1nc(Nc2ccc(N3C(=O)CN(C)C3=O)cc2)ncc1Cl` (centres unmarked) [Example 227], the logP was 1.41[b]. On the same count and under the same terms, under `CC(C)Nc1nc(Nc2ccc(NC(=O)C(F)(F)F)cc2)ncc1Cl` [Example 193] stands 1.93[b]. Consider `COCC(C)Nc1nc(Nc2cccc(C=O)c2)ncc1Cl` (centres unmarked) [Example 244], for which the logP was 1.8[b]. Still for that read-out and setting: under `CCN(C)c1nc(Nc2cccc(SC)c2)ncc1Cl` [Example 239] stands 2.99[b]. With `CCN(C)S(=O)(=O)Cc1cccc(Nc2ncc(Cl)c(NC(C)C)n2)c1` [Example 243], the logP is 1.96[b]. Same read-out and setting: with `COCC(C)Nc1nc(Nc2ccc(C(=O)Nc3ccccc3)cc2)ncc1Br` (racemic) [Example 126] the figure was 1.92[b]; with `COCC(Nc1nc(Nc2ccccc2)ncc1Cl)C(C)C` (centres unmarked) [Example 176], 2.33[b]. Still for that read-out and setting: under `COC(=O)Nc1ccc(Nc2ncc(Cl)c(NC(C)C)n2)cc1` [Example 201] stands 1.53[b]. As to `CC(C)Nc1nc(Nc2cccc(NC(=O)C3(C)CC3)c2)ncc1Cl` [Example 207], the logP was 1.78[b]. Still for that read-out and setting: under `COCC(C)Nc1nc(Nc2cccc(S(=O)(=O)N3CCCCC3)c2)ncc1Cl` (centres unmarked) [Example 150] stands 2.77[b]. Same read-out and setting: with `CCOC(=O)Nc1cccc(Nc2ncc(Br)c(NC(C)COC)n2)c1` (racemic) [Example 129] the figure was 1.87[b]; with `COc1cc(Nc2ncc(Cl)c(NC(C)C)n2)ccc1NC(C)=O` [Example 181], 1.44[b]; with `CC(C)Nc1nc(Nc2ccc(NC(=O)C(C)(C)C)cc2)ncc1Cl` [Example 188], 1.81[b].

Still in this data set, the particulars now being: values marked [c]; footnote not given.
With `COCC(C)Nc1nc(Nc2cccc(C=O)c2)ncc1Cl` (centres unmarked) [Example 244], the logP is 2.75[c];.

As for `CCN(C)c1nc(Nc2cccc(SC)c2)ncc1Cl` [Example 239], the logP is 4.32[c];. Still for that read-out and setting: under `CCN(C)S(=O)(=O)Cc1cccc(Nc2ncc(Cl)c(NC(C)C)n2)c1` [Example 243] stands 3.18[c];.

(Values after patent US20110230478A1 (Bayer ScienceCrop AG, priority 2008, published 2011).)
